We go through 72 molecules from ChEMBL document CHEMBL4483862, “Open-source discovery of chemical leads for next-generation chemoprotective antimalarials” (2018).

The assay concerns Plasmodium berghei. The experiment in a line: Luciferase/luciferin-expressing antifolate-resistant parasites were used to infect a culture of HepG2 cells that were pre-incubated with compounds. Infected hepatocytes emit light due to the luciferase reaction. Assay results are presented as the percent inhibition of light emission compared to control. […]. In kind it is functional. Particulars: sporozoite; for IC50: read-out: LUCIFERASE INFECTION ASSAY - IC50; for IC90: read-out: LUCIFERASE INFECTION ASSAY - IC90.

The structures appear in SMILES notation. A value given as a limit tells only on which side of the number the result lay.

A word on the IC50: it is the concentration that gives 50% inhibition. Usually IC90 stands for the concentration needed for an effect of 90%. Turning to `Cc1ccc(-c2nc(C(=O)NCCCN(C)C)cc3c2[nH]c2ccccc23)cc1`, the IC50 is > 8.54 µM and the IC90 was > 8.54 µM.
For the molecule `COc1cccc(/C=C2\Oc3c(CN4CCN(C)CC4)c(O)cc(C)c3C2=O)c1`, the IC50 was > 8.37 µM and the IC90 was > 8.37 µM.
Consider `Cc1cccc(N2CCN(c3cc(C)nc4c(-c5ccccc5)c(C)nn34)CC2)n1`, for which the IC50 was > 8.28 µM and the concentration for an effect of 90% (IC90) was > 8.28 µM.
`CC(C)Oc1cccc(C(=O)N2C(C)CCCC2C)c1` (centres undefined): the IC50 was > 12 µM and the IC90 was > 12 µM.
As to `Cc1ccc2c(Cl)c(C(=O)Nc3nonc3-c3ccc(F)cc3)sc2c1`, the IC50 is 1.77 µM and the IC90 came out at 3.32 µM.
As for `O=C1OC(c2ccccc2)=N/C1=C\c1ccc([N+](=O)[O-])s1`, the IC50 was > 11 µM and the IC90 was > 11 µM.
Regarding `Cc1ccc(C(C)C)c(OCc2nnnn2-c2ccc(Br)cc2)c1`, the IC50 was found to be 4.96 µM and the IC90 was > 8.52 µM.
Taken in the same sequence, the figures for `Cc1c(C)n(CCCO)c2ncn3nc(-c4ccc(Cl)cc4)nc3c12` were > 9.27 µM and > 9.27 µM.
Take `Fc1ccc(COc2ccccc2CNCc2cccnc2)cc1`: the IC50 was > 10.2 µM and the IC90 is > 10.2 µM.
As to `COc1cccc(-c2cc(=O)n3c(nc4ccccc43)[nH]2)c1`, the IC50 was > 11.3 µM and the IC90 was > 11.3 µM.
For `Cc1ccnc(-n2c(C)c(C)c3c2ncn2nc(Cc4ccccc4)nc32)c1`, the IC50 was > 8.96 µM and the IC90 was > 8.96 µM.
`O=C(Nc1ccc(OCc2nnnn2-c2ccccc2)cc1)c1ccccc1`: the IC50 is > 8.89 µM and the IC90 was > 8.89 µM.
Turning to `Cc1ccc2c(c1)CCCN2C(=S)Nc1cccc(C(F)(F)F)c1`, the IC50 was > 9.42 µM and the IC90 was > 9.42 µM.
As for `Cc1cc(C)n(-c2nc(C)c(Br)c(N(C)C)n2)n1`, the IC50 is > 10.6 µM and the IC90 is > 10.6 µM.
As for `COc1cccc(/C=C2\Oc3cc(O)cc(C)c3C2=O)c1`, the IC50 was > 11.7 µM and the IC90 was > 11.7 µM.
Take `O=c1c2cc(Br)cc(Br)c2nc(-c2ccccc2)n1-c1cc(C(F)(F)F)cc(C(F)(F)F)c1`: the IC50 was > 5.57 µM and the IC90 was > 5.57 µM.
As for `CC(C(=O)Nc1ccc(O)cc1)c1ccc2c(c1)[nH]c1ccc(Cl)cc12` (centres undefined), the half-maximal inhibitory concentration (IC50) was > 9.05 µM and the IC90 was > 9.05 µM.
Take `Oc1cc(OCCN2CCCCC2)ccc1-c1n[nH]cc1-c1ccccc1`: the IC50 is > 9.08 µM and the IC90 was > 9.08 µM.
For `CC(C)[C@H](NS(=O)(=O)c1ccccc1)C(=O)NCc1ccccc1`, the IC50 was > 9.53 µM and the IC90 is > 9.53 µM.
With `CN(C)c1ncnc2scc(-c3ccc(Cl)cc3)c12`, the IC50 was determined as 4.05 µM and the IC90 is > 11.4 µM.
On the same counts, the results for `COc1cccc(-c2cc(=O)n(-c3ccc(F)cc3)[nH]2)c1` are > 11.6 µM and > 11.6 µM.
Taken in the same sequence, the figures for `O=C(COc1ccc(F)cc1)Nc1ccc2c(=O)c3cccc(Cl)c3oc2c1` were > 8.3 µM and > 8.3 µM.
Taken in the same sequence, the figures for `S=C(Nc1ccc(C2=NCCO2)cc1)Nc1ccc(Cl)c(Cl)c1` were > 9.01 µM and > 9.01 µM.
For `CC(C)NCC(=O)Nc1cccc2c1C(=O)c1ccccc1C2=O`, the IC50 is 8.29 µM and the IC90 is > 10.2 µM.
For the molecule `C=CCNC(=O)COc1ccc2c(=O)c(-c3ccc(Cl)cc3)c(C)oc2c1`, the IC50 was > 8.6 µM and the concentration for an effect of 90% (IC90) is > 8.6 µM.
In the case of `COc1cccc(CNCCCSc2nnnn2-c2ccccc2)c1`, the concentration for half-maximal inhibition (IC50) was > 9.28 µM and the IC90 is > 9.28 µM.
Consider `COc1ccc(/C=C2\Oc3c(CN(C)C)c(O)cc(C)c3C2=O)cc1`, for which the IC50 is > 9.72 µM and the IC90 was > 9.72 µM.
With `Brc1ccc(OCc2ccccc2)c(CNCc2cccnc2)c1`, the IC50 is > 8.61 µM and the IC90 was > 8.61 µM.
For the molecule `Fc1ccccc1COc1ccccc1CNCc1cccnc1`, the IC50 was > 10.2 µM and the IC90 was > 10.2 µM.
For the molecule `CC(C)(C)c1ccc(OS(=O)(=O)c2ccc(Oc3c(Cl)cccc3[N+](=O)[O-])cc2)cc1`, the IC50 was > 7.14 µM and the concentration for an effect of 90% (IC90) was > 7.14 µM.
On to `O=C(Nc1ccc(Oc2ccc(OC(F)(F)F)cc2)cc1)Nc1ccc(OC(F)(F)F)cc1`, for which the IC50 was > 6.99 µM and the IC90 is > 6.99 µM.
As for `COc1cccc(-n2c(C)cc(C(=O)CSc3ncc(C#N)c(N)n3)c2C)c1`, the IC50 is > 8.39 µM and the concentration for an effect of 90% (IC90) is > 8.39 µM.
`Oc1c(Cl)cc(Cl)cc1C1Nc2cccc3cccc(c23)N1`: the IC50 was > 9.96 µM and the 90% effect concentration (IC90) was > 9.96 µM.
As for `Cc1c(C(=O)Nc2nonc2-c2ccc3c(c2)CCCC3)oc2ccccc12`, the half-maximal inhibitory concentration (IC50) was > 8.84 µM and the 90% effect concentration (IC90) was > 8.84 µM.
For `Cc1c(C)n(Cc2ccccc2)c2ncn3nc(-c4cccnc4)nc3c12`, the IC50 was > 9.31 µM and the IC90 was > 9.31 µM.
In the case of `Nc1c(C(=O)Nc2nc3ccccc3s2)sc2ncccc12`, the IC50 worked out at 0.00465 µM and the IC90 is 0.512 µM.
On the same counts, the results for `O=C(c1ccc2cc[nH]c2c1)N1CCN(C/C=C/c2ccccc2)CC1` are 7.41 µM and 9.08 µM.
Taken in the same sequence, the figures for `CCCCCc1ccc(NC(=O)NC2=NCCS2)cc1` were > 11.3 µM and > 11.3 µM.
On the same counts, the results for `COc1ccc(C(=O)Nc2nonc2-c2ccc(F)cc2)cc1Cl` are 3.16 µM and 3.66 µM.
`Cc1nc2c3c(C)c(C)n(C4CCCCCC4)c3ncn2n1`: the IC50 was > 11.1 µM and the IC90 is > 11.1 µM.
On to `O=C(c1cc2cc(Cl)ccc2o1)N1CCN(Cc2ccc3c(c2)OCO3)CC1`, for which the IC50 was > 8.27 µM and the IC90 is > 8.27 µM.
With `CCC1Oc2ccccc2C(=O)N(Cc2ccccc2F)C1=O` (centres undefined), the IC50 is > 10.5 µM and the IC90 was > 10.5 µM.
On to `O=C1/C(=C\c2ccccn2)N(CCc2ccccc2)S(=O)(=O)c2ccccc21`, for which the IC50 is > 8.45 µM and the IC90 was > 8.45 µM.
Regarding `Cc1nc(N2CCC(C)CC2)nc2c1C(=O)CC(/C=C/c1ccccc1)C2` (centres undefined), the IC50 is > 9.13 µM and the concentration for an effect of 90% (IC90) is > 9.13 µM.
On to `COc1ccc(CCn2c(C)nc3c(cnn3-c3ccccc3)c2=O)cc1`, for which the IC50 was found to be 0.489 µM and the IC90 is 3.03 µM.
For the molecule `CCOc1ccccc1C(=O)CN1C(=O)COc2ccccc2C1=O`, the 50% inhibitory concentration (IC50) was > 9.72 µM and the IC90 was > 9.72 µM.
With `Clc1cc(Cl)cc(NCc2ccc3c(c2)OCO3)c1`, the IC50 was > 11.1 µM and the IC90 is > 11.1 µM.
Consider `O=c1[nH]c2ccc(NCc3cc(Cl)ccc3OCc3ccc(F)cc3)cc2[nH]1`, for which the IC50 is > 8.29 µM and the IC90 was > 8.29 µM.
With `N#CC(C#N)C=Nc1cc(C(F)(F)F)ccc1N1CCCC1`, the IC50 is > 10.8 µM and the IC90 is > 10.8 µM.
For `CCOC(=O)c1cc(C#N)c(C)nc1Sc1ccccc1NC(=O)Nc1ccc(SC(F)(F)F)cc1`, the IC50 is > 6.2 µM and the IC90 is > 6.2 µM.
With `COc1ccc(-c2nc(C(=O)NC3CCCC3)cc3c2[nH]c2ccccc23)cc1`, the IC50 worked out at 8.53 µM and the IC90 is > 8.56 µM.
Take `Cc1cccc(OCc2nnnn2-c2ccc(Br)cc2)c1`: the IC50 was > 9.56 µM and the IC90 is > 9.56 µM.
As to `COCC(C)NC(=O)c1cccnc1-c1nc2ccccc2s1` (centres undefined), the IC50 was > 10.1 µM and the IC90 is > 10.1 µM.
As for `Cc1cc(O)cc2c1C(=O)/C(=C/c1ccc(F)cc1)O2`, the IC50 was > 12.2 µM and the concentration for an effect of 90% (IC90) was > 12.2 µM.
`CC(C)(C)c1ccc(NC(=O)N2CCCN(Cc3ccccc3)CC2)cc1`: the IC50 is 8.75 µM and the IC90 is > 9.03 µM.
On the same counts, the results for `Cn1c(CNC(=O)c2ccc(Cl)cc2)nc2ccccc21` are > 11 µM and > 11 µM.
Taken in the same sequence, the figures for `CCOc1ccccc1C(=O)N(C)Cc1nc(-c2ccccc2)no1` were > 9.78 µM and > 9.78 µM.
Taken in the same sequence, the figures for `CC(C)CNc1cc(N2CCN(C)CC2)c(N)c2c1C(=O)c1ccccc1C2=O` were > 8.41 µM and > 8.41 µM.
For `Clc1ccccc1COc1ccccc1CNCc1cccnc1`, the IC50 is > 9.74 µM and the IC90 was > 9.74 µM.
Regarding `Cc1c(C)n(CC(C)C)c2ncnc(Nc3nccs3)c12`, the IC50 was > 10.9 µM and the IC90 was > 10.9 µM.
As to `O=C1/C(=C\c2ccccn2)N(Cc2ccccc2)S(=O)(=O)c2ccccc21`, the IC50 came to 2.87 µM and the IC90 was 5.19 µM.
`CC1Cc2nc(N)nc(N)c2CC1C` (centres undefined): the IC50 was > 17.2 µM and the IC90 is > 17.2 µM.
Turning to `COc1ccc(OC)c(C(=O)c2oc3cc(NC(=O)C4CC4)ccc3c2C)c1`, the IC50 was 0.214 µM and the IC90 came out at 0.519 µM.
Take `COc1ccccc1N1CCN(C(=O)c2cc3cc(Cl)ccc3o2)CC1`: the IC50 is > 8.9 µM and the IC90 was > 8.9 µM.
Regarding `CCn1c(SCC(=O)Nc2cc(Cl)ccc2O)nnc1-c1ccncc1`, the half-maximal inhibitory concentration (IC50) is > 8.46 µM and the IC90 was > 8.46 µM.
With `COc1ccc(S(=O)(=O)N2CCN(c3cc(C)c4ccccc4n3)CC2)cc1`, the concentration for half-maximal inhibition (IC50) is > 8.3 µM and the IC90 was > 8.3 µM.
In the case of `O=C(c1c[nH]c2ccccc12)N1CCC(Cc2ccccc2)CC1`, the IC50 is > 10.4 µM and the IC90 is > 10.4 µM.
For the molecule `Cc1c(C)n(Cc2ccccc2)c2ncn3nc(-c4ccccn4)nc3c12`, the IC50 was > 9.31 µM and the IC90 was > 9.31 µM.
For `COc1cc(NS(=O)(=O)c2ccc3ccccc3c2)c(OC)cc1Cl`, the 50% inhibitory concentration (IC50) was found to be 2.78 µM and the IC90 worked out at 4.48 µM.
Taken in the same sequence, the figures for `CCc1nnc(NC(=O)C2CCCN2S(=O)(=O)c2ccc(OC)cc2)s1` (centres undefined) were 4.85 µM and > 8.32 µM.
As to `CC(c1ccc(-c2ccccc2)c(F)c1)c1nn2c(-c3ccco3)nnc2s1` (centres undefined), the 50% inhibitory concentration (IC50) is 0.85 µM and the IC90 amounted to 2.45 µM.
Turning to `O=C1C(=O)N(CCN2CCCCC2)c2ccc(F)cc21`, the IC50 is > 11.9 µM and the IC90 is > 11.9 µM.
